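96-well plates; 48 h exposure; 5 concentrations. Endpoints by linear interpolation between flanking doses. Not reached: highest tested concentration assigned. Definition used: TGI = concentration required for complete inhibition of growth.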
What was measured:
Assay in all cases: NCI tumour cell line growth inhibition, 48 h
786-0 renal = tested on: 786-0 renal
A498 renal = tested on: A498 renal
A549 NSCLC = tested on: A549 NSCLC
ACHN renal = tested on: ACHN renal
BT-549 breast = tested on: BT-549 breast
CAKI-1 renal = tested on: CAKI-1 renal
COLO 205 colon = tested on: COLO 205 colon
DU-145 prostate = tested on: DU-145 prostate
EKVX NSCLC = tested on: EKVX NSCLC
HCC-2998 colon = tested on: HCC-2998 colon
HCT-116 colon = tested on: HCT-116 colon
HCT-15 colon = tested on: HCT-15 colon
HOP-62 NSCLC = tested on: HOP-62 NSCLC
HOP-92 NSCLC = tested on: HOP-92 NSCLC
HS 578T breast = tested on: HS 578T breast
HT29 colon = tested on: HT29 colon
IGROV1 ovarian = tested on: IGROV1 ovarian
K-562 leukemia = tested on: K-562 leukemia
KM12 colon = tested on: KM12 colon
LOX IMVI melanoma = tested on: LOX IMVI melanoma
M14 melanoma = tested on: M14 melanoma
MALME-3M melanoma = tested on: MALME-3M melanoma
MCF7 breast = tested on: MCF7 breast
MDA-MB-231 breast = tested on: MDA-MB-231 breast
MDA-MB-435 = tested on: MDA-MB-435
MDA-N = tested on: MDA-N
NCI-H226 lung = tested on: NCI-H226 lung
NCI-H23 lung = tested on: NCI-H23 lung
NCI-H460 lung = tested on: NCI-H460 lung
NCI-H522 lung = tested on: NCI-H522 lung
NCI/ADR-RES ovarian = tested on: NCI/ADR-RES ovarian
OVCAR-3 ovarian = tested on: OVCAR-3 ovarian
OVCAR-4 ovarian = tested on: OVCAR-4 ovarian
OVCAR-5 ovarian = tested on: OVCAR-5 ovarian
OVCAR-8 ovarian = tested on: OVCAR-8 ovarian
RPMI-8226 leukemia = tested on: RPMI-8226 leukemia
RXF 393 renal = tested on: RXF 393 renal
SF-268 CNS = tested on: SF-268 CNS
SF-295 CNS = tested on: SF-295 CNS
SK-MEL-2 melanoma = tested on: SK-MEL-2 melanoma
SK-MEL-28 melanoma = tested on: SK-MEL-28 melanoma
SK-MEL-5 melanoma = tested on: SK-MEL-5 melanoma
SK-OV-3 ovarian = tested on: SK-OV-3 ovarian
SN12C renal = tested on: SN12C renal
SNB-19 CNS = tested on: SNB-19 CNS
SNB-75 CNS = tested on: SNB-75 CNS
SR leukemia = tested on: SR leukemia
SW-620 colon = tested on: SW-620 colon
T-47D breast = tested on: T-47D breast
TK-10 renal = tested on: TK-10 renal
U251 CNS = tested on: U251 CNS
UACC-257 melanoma = tested on: UACC-257 melanoma
UACC-62 melanoma = tested on: UACC-62 melanoma
UO-31 renal = tested on: UO-31 renal
CCRF-CEM leukemia = tested on: CCRF-CEM leukemia
HL-60(TB) leukemia = tested on: HL-60(TB) leukemia
MOLT-4 leukemia = tested on: MOLT-4 leukemia
PC-3 prostate = tested on: PC-3 prostate
SF-539 CNS = tested on: SF-539 CNS

## O=C(O)C1OC1C(=O)O (configuration not stated)
786-0 renal
  TGI: > 100 µM
A498 renal
  TGI: > 100 µM
A549 NSCLC
  TGI: > 100 µM
ACHN renal
  TGI: > 100 µM
BT-549 breast
  TGI: > 100 µM
CAKI-1 renal
  TGI: > 100 µM
COLO 205 colon
  TGI: > 100 µM
DU-145 prostate
  TGI: > 100 µM
EKVX NSCLC
  TGI: > 100 µM
HCC-2998 colon
  TGI: > 100 µM
HCT-116 colon
  TGI: > 100 µM
HCT-15 colon
  TGI: > 100 µM
HOP-62 NSCLC
  TGI: > 100 µM
HOP-92 NSCLC
  TGI: > 100 µM
HS 578T breast
  TGI: > 100 µM
HT29 colon
  TGI: > 100 µM
IGROV1 ovarian
  TGI: > 100 µM
K-562 leukemia
  TGI: > 100 µM
KM12 colon
  TGI: > 100 µM
LOX IMVI melanoma
  TGI: > 100 µM
M14 melanoma
  TGI: > 100 µM
MALME-3M melanoma
  TGI: > 100 µM
MCF7 breast
  TGI: > 100 µM
MDA-MB-231 breast
  TGI: > 100 µM
MDA-MB-435
  TGI: > 100 µM
MDA-N
  TGI: > 100 µM
NCI-H226 lung
  TGI: > 100 µM
NCI-H23 lung
  TGI: > 100 µM
NCI-H460 lung
  TGI: > 100 µM
NCI-H522 lung
  TGI: > 100 µM
NCI/ADR-RES ovarian
  TGI: > 100 µM
OVCAR-3 ovarian
  TGI: > 100 µM
OVCAR-4 ovarian
  TGI: > 100 µM
OVCAR-5 ovarian
  TGI: > 100 µM
OVCAR-8 ovarian
  TGI: > 100 µM
RPMI-8226 leukemia
  TGI: > 100 µM
RXF 393 renal
  TGI: > 100 µM
SF-268 CNS
  TGI: > 100 µM
SF-295 CNS
  TGI: > 100 µM
SK-MEL-2 melanoma
  TGI: > 100 µM
SK-MEL-28 melanoma
  TGI: > 100 µM
SK-MEL-5 melanoma
  TGI: > 100 µM
SK-OV-3 ovarian
  TGI: > 100 µM
SN12C renal
  TGI: > 100 µM
SNB-19 CNS
  TGI: > 100 µM
SNB-75 CNS
  TGI: > 100 µM
SR leukemia
  TGI: > 100 µM
SW-620 colon
  TGI: > 100 µM
T-47D breast
  TGI: > 100 µM
TK-10 renal
  TGI: > 100 µM
U251 CNS
  TGI: > 100 µM
UACC-257 melanoma
  TGI: > 100 µM
UACC-62 melanoma
  TGI: > 100 µM
UO-31 renal
  TGI: > 100 µM

## COC(=O)c1c(C)[nH]c2c1C(=O)C(=O)c1nc(C)c(C)nc1-2
786-0 renal
  TGI: 25.9 µM
A498 renal
  TGI: 40 µM
A549 NSCLC
  TGI: > 100 µM
ACHN renal
  TGI: 47.3 µM
BT-549 breast
  TGI: 23 µM
CAKI-1 renal
  TGI: > 100 µM
CCRF-CEM leukemia
  TGI: 35.7 µM
COLO 205 colon
  TGI: 29.5 µM
DU-145 prostate
  TGI: 25.5 µM
EKVX NSCLC
  TGI: 22.6 µM
HCC-2998 colon
  TGI: 24 µM
HCT-116 colon
  TGI: 18.2 µM
HCT-15 colon
  TGI: > 100 µM
HL-60(TB) leukemia
  TGI: 29.2 µM
HOP-62 NSCLC
  TGI: 22 µM
HOP-92 NSCLC
  TGI: 24.8 µM
HS 578T breast
  TGI: 58.6 µM
HT29 colon
  TGI: 59.6 µM
IGROV1 ovarian
  TGI: 36.1 µM
K-562 leukemia
  TGI: > 100 µM
KM12 colon
  TGI: 37.1 µM
LOX IMVI melanoma
  TGI: 24.1 µM
M14 melanoma
  TGI: 27 µM
MALME-3M melanoma
  TGI: 15.7 µM
MCF7 breast
  TGI: 24.8 µM
MDA-MB-435
  TGI: 28.5 µM
MDA-N
  TGI: 19.9 µM
MOLT-4 leukemia
  TGI: 95 µM
NCI-H226 lung
  TGI: 26.7 µM
NCI-H23 lung
  TGI: 36.9 µM
NCI-H460 lung
  TGI: > 100 µM
NCI-H522 lung
  TGI: 21.4 µM
NCI/ADR-RES ovarian
  TGI: 78.1 µM
OVCAR-3 ovarian
  TGI: 23.3 µM
OVCAR-4 ovarian
  TGI: 28.7 µM
OVCAR-5 ovarian
  TGI: 27.6 µM
OVCAR-8 ovarian
  TGI: 26.8 µM
PC-3 prostate
  TGI: 29.3 µM
RPMI-8226 leukemia
  TGI: 47.3 µM
RXF 393 renal
  TGI: 13.4 µM
SF-268 CNS
  TGI: 23.6 µM
SF-295 CNS
  TGI: 18.3 µM
SF-539 CNS
  TGI: 24.8 µM
SK-MEL-2 melanoma
  TGI: 16.3 µM
SK-MEL-28 melanoma
  TGI: 25.2 µM
SK-MEL-5 melanoma
  TGI: 20 µM
SK-OV-3 ovarian
  TGI: 18.5 µM
SN12C renal
  TGI: 12.8 µM
SNB-19 CNS
  TGI: 27.4 µM
SNB-75 CNS
  TGI: 7.95 µM
SR leukemia
  TGI: 44.9 µM
SW-620 colon
  TGI: 41.7 µM
T-47D breast
  TGI: 9.55 µM
TK-10 renal
  TGI: 9.68 µM
U251 CNS
  TGI: 18.4 µM
UACC-257 melanoma
  TGI: 24.6 µM
UACC-62 melanoma
  TGI: 18.9 µM
UO-31 renal
  TGI: 35.7 µM
